In one assay the target is KRAS (G12C)::SOS1 (Homo sapiens (Human), UniProt P01116, C118S/C51S/C80L/G12C). In words: KRAS::SOS1 AlphaScreen binding assay, KRAS G12C. From the text: (§1) This assay can be used to examine the potency with which compounds according to the invention binding to (mutated) KRAS inhibit the protein-protein interaction between SOS1 and (mutated) KRAS e.g., KRAS WT, KRAS G12C, KRAS G12D, KRAS G12V, KRAS G13D. […] Low IC50 values in this assay setting are indicative of strong inhibition of protein-protein interaction between SOS1 and KRAS:
(§2) These assays measure the inhibitory effect of compounds on KRAS mutant protein-protein interactions using the Alpha Screen technology by Perkin Elmer.
(§3) The following (mutant) enzyme forms of KRAS and interacting proteins are used in these assays at the given concentrations: • KRAS (G12D) 1-169, N-terminal 6His-tag, C-terminal avi-tag (Xtal BioStructures, Inc.); final assay concentration 10 nM and SOS1 564-1049, N-terminal 229 GST-tag, TEV cleavage site (Viva Biotech Ltd); final assay concentration 5 nM; • KRAS (G12C) 1-169, N-terminal 6His-tag for purification, cleaved off, C-terminal avi-tag, biotinylated, mutations: C51S, C80L, C118S (in house); final assay concentration 7.5 nM and SOS1 564-1049, N-terminal 229 GST-tag, TEV cleavage site (Viva Biotech Ltd); final assay concentration 5 nM; • KRAS (G12V) 1-169, N-terminal 6His-tag for purification, cleaved off, C-terminal avi-tag, biotinylated, TEV cleavage site, mutation: C118S, GDP loaded (in house); final assay concentration 10 nM and SOS1 564-1049, N-terminal 229 GST-tag, TEV cleavage site (Viva Biotech Ltd); final assay concentration 10 nM; • KRAS (G13D) 1-169, N-terminal 6His-tag for purification, cleaved off, C-terminal avi-tag, biotinylated, TEV cleavage site, mutation: C118S, GDP loaded (in house); final assay concentration 10 nM and SOS1 564-1049, N-terminal 229 GST-tag, TEV cleavage site (Viva Biotech Ltd); final assay concentration 10 nM; • KRAS (WT) 1-169, N-terminal 6His-tag for purification, cleaved off, C-terminal avi-tag, biotinylated, TEV cleavage site, mutation: C118S, GDP loaded (in house); final assay concentration 10 nM and SOS1 564-1049, N-terminal 229 GST-tag, TEV cleavage site (Viva Biotech Ltd); final assay concentration 10 nM.
(§4) Test compounds dissolved in DMSO are dispensed onto assay plates (Proxiplate 384 PLUS, white, PerkinElmer; 6008289) using an Access Labcyte Workstation with the Labcyte Echo 55×. For the chosen highest assay concentration of 100 μM, 150 nL of compound solution are transferred from a 10 mM DMSO compound stock solution. A series of eleven fivefold dilutions per compound are transferred to the assay plate, compound dilutions are tested in duplicates. DMSO are added as backfill to a total volume of 150 nL.
(§5) The assays run on a fully automated robotic system in a darkened room below 100 Lux. To 150 nl of compound dilution 10 μl of a mix including KRAS mutant protein, SOS1 (final assay concentrations see above) and GDP nucleotide (Sigma G7127; final assay concentration 10 μM) in assay buffer (1×PBS, 0.1% BSA, 0.05% Tween 20) are added into columns 1-24.
(§6) After 30 minutes incubation time 5 μl of Alpha Screen bead mix in assay buffer are added into columns 1-23. Bead mix consists of AlphaLISA Glutathione Acceptor Beads (PerkinElmer, Cat No AL109) and AlphaScreen Streptavidin Donor Beads (PerkinElmer Cat No 6760002) in assay buffer at a final assay concentration of 10 μg/ml each.
(§7) Plates are kept at room temperature in a darkened incubator. After an additional 60 minutes incubation time the signal is measured in a PerkinElmer Envision HTS Multilabel Reader using the AlphaScreen specs from PerkinElmer.
(§8) Each plate contains up to 16 wells of a negative control depending on the dilution procedure (platewise or serial) (DMSO instead of test compound; with KRAS mutant::SOS1 GDP mix and bead mix; column 23) and 16 wells of a positive control (DMSO instead of test compound; with KRAS mutant::SOS1 GDP mix w/o bead mix; column 24).
(§9) As internal control known inhibitors of KRAS mutant::SOS1 interaction can be measured on each compound plate. […]
On the technique in general: Bead proximity is the source of the signal in Alpha formats.

The test system of a further assay is LOVO cells. The experiment in a line: LOVO CTG proliferation assay (120 h) (CRC, G13D). The assay is classed as cell-based. As to conditions: Homo sapiens, CTG 120 h. How it is done:
LOVO CTG Proliferation Assay (120 h) (CRC, G13D)
LOVO cells (ATCC CCL-229) are dispensed into 384-well plates, flat and clear bottom (Greiner, PNr. 781091) at a density of 1000 cells per well in 60 μL DMEM (Sigma D6429)+10% Fetal Calf Serum (HyClone, PNr.: SH30084.03) and incubated at 37° C. in a CO2 incubator overnight. The next day, compounds (10 mM stock in DMSO) are added with the ECHO acoustic liquid handler system (Beckman Coulter), including DMSO controls. Plates are incubated for 120 h, and cell viability is measured using CellTiter-Glo luminescent cell viability reagent (Promega product code G7570). Viability (stated as percent of control) is defined as relative luminescence units RLU of each well divided by the RLU of cells in DMSO controls. IC50 values are determined from viability measurements by non-linear regression using a four-parameter model.

For another assay, the target named is KRAS (G12D)::SOS1 (Homo sapiens (Human), UniProt P01116, G12D). In words: KRAS::SOS1 AlphaScreen binding assay, KRAS G12D.
Chain of KRAS (G12D)::SOS1 (P01116 other isoform, or with tags, fused parts or gaps G12D): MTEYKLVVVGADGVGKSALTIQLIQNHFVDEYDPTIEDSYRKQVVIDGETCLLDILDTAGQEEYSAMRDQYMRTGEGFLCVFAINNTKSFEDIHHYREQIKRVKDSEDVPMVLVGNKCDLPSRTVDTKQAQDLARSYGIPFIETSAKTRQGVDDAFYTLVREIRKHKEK
Excerpt: as §1, §2, §3, §4, §5, §6, §7, §8, §9

The text below walks through data of patent US20240174690A1, “ANNULATED 2-AMINO-3-CYANO THIOPHENES AND DERIVATIVES FOR THE TREATMENT OF CANCER” (BOEHRINGER INGELHEIM INTERNATIONAL GMBH, priority 2021, published 2024).

In general, pIC50 refers to the IC50 on a negative log10 scale, so that one unit is a factor of ten. A lower pIC50 goes with a high IC50.

pIC50: −log10 of the molar value.

Chain of KRAS (G12C)::SOS1 (P01116 other isoform, or with tags, fused parts or gaps G12C/C51S/C80L/C118S): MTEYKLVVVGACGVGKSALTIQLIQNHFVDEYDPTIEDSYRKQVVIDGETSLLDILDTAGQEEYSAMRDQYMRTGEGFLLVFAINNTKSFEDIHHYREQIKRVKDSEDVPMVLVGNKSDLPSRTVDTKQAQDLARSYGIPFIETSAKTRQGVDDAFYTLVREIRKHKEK

For `C[C@H](Oc1cc(-c2cncnc2)nc(-c2noc3c2CCC[C@@]32CCCc3sc(N)c(C#N)c32)n1)[C@@H]1CCCN1C` [II-82], the negative logarithm of the IC50 (pIC50) on KRAS (G12C)::SOS1 was 8.52; in the assay on LOVO cells, 6.14; at KRAS (G12D)::SOS1, 8.22.

`C[C@H](Oc1cc(-c2ccn(C)n2)nc(-c2noc3c2CCC[C@@]32CCCc3sc(N)c(C#N)c32)n1)[C@@H]1CCCN1C` [II-96]: the negative-log IC50 (pIC50) on KRAS (G12C)::SOS1 was 8.70; in the assay with LOVO cells, 6.64; on KRAS (G12D)::SOS1, 8.70.

As to `C[C@H](Oc1cc(-n2ccc(Br)n2)nc(-c2noc3c2CCC[C@@]32CCCc3sc(N)c(C#N)c32)n1)[C@@H]1CCCN1C` [II-110], the figures for the pIC50 on KRAS (G12C)::SOS1, in the assay on LOVO cells and at KRAS (G12D)::SOS1 were 8.70, 7.04 and 8.52, respectively.

As to `C[C@H](Oc1cc(N2CCNC[C@@]23CCOC3)nc(-c2noc3c2CCC[C@@]32CCCc3sc(N)c(C#N)c32)n1)[C@@H]1CCCN1C` [II-51], the negative-log IC50 (pIC50) at KRAS (G12C)::SOS1 is 8.40; with LOVO cells, 6.11; on KRAS (G12D)::SOS1, 9.00.

Take `C[C@H](Oc1cc(C2CCOCC2)nc(-c2noc3c2CCC[C@@]32CCCc3sc(N)c(C#N)c32)n1)[C@@H]1CCCN1C` [II-76]: the figures for the pIC50 at KRAS (G12C)::SOS1, in the assay on LOVO cells and on KRAS (G12D)::SOS1 were 8.70, 7.29 and 8.52, respectively.

For `C[C@H](Oc1cc(N2CCNC3(CC3)C2)nc(-c2onc3c2CCC[C@@]32CCCc3sc(N)c(C#N)c32)n1)[C@@H]1CCCN1C` [I-5], the negative logarithm of the IC50 (pIC50) on KRAS (G12C)::SOS1 was 8.70; in the assay with LOVO cells, 5.79; at KRAS (G12D)::SOS1 it was 9.00.

Turning to `C[C@H](Oc1cc(-n2ccnc2)nc(-c2noc3c2CCC[C@@]32CCCc3sc(N)c(C#N)c32)n1)[C@@H]1CCCN1C` [II-69], the negative-log IC50 (pIC50) on KRAS (G12C)::SOS1 is 8.70; with LOVO cells it was 7.28; at KRAS (G12D)::SOS1 it was 8.70.

In the case of `Cc1nccn1-c1cc(O[C@@H](C)[C@@H]2CCCN2C)nc(-c2noc3c2CCC[C@@]32CCCc3sc(N)c(C#N)c32)n1` [II-79], the pIC50 was 8.70 on KRAS (G12C)::SOS1, 6.97 in the assay with LOVO cells and 8.70 on KRAS (G12D)::SOS1.

`C[C@H](Oc1cc(N2CCC(C#N)C2)nc(-c2noc3c2CCC[C@@]32CCCc3sc(N)c(C#N)c32)n1)[C@@H]1CCCN1C` (stereo partly drawn) [II-99]: the negative logarithm of the IC50 (pIC50) is 8.52 at KRAS (G12C)::SOS1, 6.54 with LOVO cells and 8.40 on KRAS (G12D)::SOS1.

On to `C[C@H](Oc1cc(N2CCN3CCC3C2)nc(-c2onc3c2CCC[C@@]32CCCc3sc(N)c(C#N)c32)n1)[C@@H]1CCCN1C` (stereo partly drawn) [I-9], for which the figures for the pIC50 at KRAS (G12C)::SOS1, with LOVO cells and on KRAS (G12D)::SOS1 were 8.30, 6.19 and 8.70, respectively.

For `C[C@H](Oc1cc(-c2ccn(C3CC3)n2)nc(-c2noc3c2CCC[C@@]32CCCc3sc(N)c(C#N)c32)n1)[C@@H]1CCCN1C` [II-98], the pIC50 was 8.70 on KRAS (G12C)::SOS1, 6.22 in the assay with LOVO cells and 8.40 at KRAS (G12D)::SOS1.

Regarding `CO[C@@H]1C[C@@H]([C@H](C)Oc2cc(-c3cnn(C)n3)nc(-c3noc4c3CCC[C@@]43CCCc4sc(N)c(C#N)c43)n2)N(C)C1` [II-62], the results for the pIC50 on KRAS (G12C)::SOS1, with LOVO cells and at KRAS (G12D)::SOS1 were 8.52, 5.63 and 8.15, respectively.
